The target of experiment [1] is T1, human full-length MKNK1 (Homo sapiens (Human), UniProt Q9BUB5, T344D). Kind of experiment: MKNK1 kinase assay (TR-FRET, 10 μM ATP). The format is biochemical. To be noted: 15 min preincubation, GST-MKNK1 (T344D). The method, then: MKNK1-inhibitory activity of compounds of the present invention was quantified employing the MKNK1 TR-FRET assay as described in the following paragraphs. […] As substrate for the kinase reaction the biotinylated peptide biotin-Ahx-[…]
For the assay 50 nL of a 100 fold concentrated solution of the test compound in DMSO was pipetted into a black low volume 384 well microtiter plate (Greiner Bio-One, Frickenhausen, Germany), 2 μL of a solution of MKNK1 in aqueous assay buffer [50 mM HEPES pH 7.5, 5 mM magnesium chloride, 1.0 mM dithiothreitol, 0.005% (v/v) Nonidet-P40 (Sigma)] was added and the mixture was incubated for 15 min at 22° C. to allow pre-binding of the test compounds to the enzyme before the start of the kinase reaction. […] The concentration of MKNK1 was adjusted depending of the activity of the enzyme lot and was chosen appropriate to have the assay in the linear range, typical concentrations were in the range of 0.05 μg/mi. The reaction was stopped by the addition of 5 μL of a solution of TR-FRET detection reagents (5 nM streptavidine-XL665 [Cisbio Bioassays, Codolet, France] and 1 nM anti-ribosomal protein […] (pSer236)-antibody from Invitrogen [#44921G] and 1 nM LANCE EU-W1024 labeled ProteinG [Perkin-Elmer, product no. AD0071]) in an aqueous EDTA-solution (100 mM EDTA, 0.1% (w/v) bovine serum albumin in 50 mM HEPES pH 7.5).
(§1) The resulting mixture was incubated for 1 h at 22° C. to allow the formation of complex between the phosphorylated biotinylated peptide and the detection reagents. Subsequently the amount of phosphorylated substrate was evaluated by measurement of the resonance energy transfer from the Eu-chelate to the streptavidine-XL.
A general note: Time-resolved FRET reads energy transfer from a long-lived donor to a nearby acceptor.

Experiment [2] deals with T1, human full-length MKNK1. Kind of experiment: MKNK1 kinase high ATP assay (TR-FRET, 2 mM ATP). To be noted: 15 min preincubation, GST-MKNK1 (T344D). The class given is biochemical. The method, then: MKNK1-inhibitory activity at high ATP of compounds of the present invention after their preincubation with MKNK1 was quantified employing the TR-FRET-based MKNK1 high ATP assay as described in the following paragraphs.
As substrate for the kinase reaction the biotinylated peptide biotin-Ahx-[…]
For the assay 50 nL of a 100 fold concentrated solution of the test compound in DMSO was pipetted into a black low volume 384 well microtiter plate (Greiner Bio-One, Frickenhausen, Germany), 2 μL of a solution of MKNK1 in aqueous assay buffer [50 mM HEPES pH 7.5, 5 mM magnesium chloride, 1.0 mM dithiothreitol, 0.005% (v/v) Nonidet-P40 (Sigma)] was added and the mixture was incubated for 15 min at 22° C. to allow pre-binding of the test compounds to the enzyme before the start of the kinase reaction. Then the kinase reaction was started by the addition of 3 μL of a solution of adenosine-tri-phosphate (ATP, 3.3 mM=>final conc. in the 5 μL assay volume is 2 mM) and substrate (0.1 μM=>final conc. in the 5 μL assay volume is 0.06 μM) in assay buffer and the resulting mixture was incubated for a reaction time of 30 min at 22° C. The concentration of MKNK1 was adjusted depending of the activity of the enzyme lot and was chosen appropriate to have the assay in the linear range, typical concentrations were in the range of 0.003 μg/mL. The reaction was stopped by the addition of 5 μL of a solution of TR-FRET detection reagents (5 nM streptavidine-XL665 [Cisbio Bioassays, Codolet, France] and 1 nM anti-ribosomal protein S6 (pSer236)-antibody from Invitrogen [#44921G] and 1 nM LANCE EU-W1024 labeled ProteinG [Perkin-Elmer, product no. AD0071]) in an aqueous EDTA-solution (100 mM EDTA, 0.1% (w/v) bovine serum albumin in 50 mM HEPES pH 7.5).
as §1

The record followed here is US10214545B2, “Amido-substituted imidazopyridazines useful in the treatment of hyper-proliferative and/or angiogenesis disorders” (BAYER PHARMA AKTIENGESELLSCHAFT, priority 2014, dated 2019).

Usually IC50 stands for the point on the concentration scale where inhibition reaches its midpoint. Low readings indicate inhibition by little substance, high ones a need for much substance.

The structures appear in SMILES notation.

T1 sequence (Q9BUB5 other isoform, or with tags, fused parts or gaps T344D): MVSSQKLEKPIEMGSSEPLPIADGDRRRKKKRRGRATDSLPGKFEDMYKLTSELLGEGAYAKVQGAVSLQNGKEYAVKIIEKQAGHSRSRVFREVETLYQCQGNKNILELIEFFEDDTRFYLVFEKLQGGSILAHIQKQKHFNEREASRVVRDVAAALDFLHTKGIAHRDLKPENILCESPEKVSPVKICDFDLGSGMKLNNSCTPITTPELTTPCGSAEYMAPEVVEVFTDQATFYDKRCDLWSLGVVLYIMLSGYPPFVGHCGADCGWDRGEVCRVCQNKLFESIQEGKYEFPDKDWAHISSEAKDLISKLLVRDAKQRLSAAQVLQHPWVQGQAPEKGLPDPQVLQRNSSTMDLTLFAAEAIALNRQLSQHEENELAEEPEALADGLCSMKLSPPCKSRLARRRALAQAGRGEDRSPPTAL

`COCCCNC(=O)c1ccc2ncc(-c3cc4ccccc4o3)n2n1` [Example 12, 3-(1-Benzofuran-2-yl)-N-(3-methoxypropyl)imidazo[1,2-b]pyridazine-6-carboxamide]: the IC50 on human full-length MKNK1 [1] amounted to 4.9 nM; against human full-length MKNK1 [2] it was 9.5 nM.
For `CC(C)[C@@H](CO)NC(=O)c1ccc2ncc(-c3cc4ccccc4o3)n2n1` [Example 18, 3-(1-Benzofuran-2-yl)-N-[(2S)-1-hydroxy-3-methylbutan-2-yl]imidazo[1,2-b]-pyridazine-6-carboxamide], the half-maximal inhibitory concentration (IC50) was 1.3 nM against human full-length MKNK1 [1] and 42 nM against human full-length MKNK1 [2].
For `CC(C)[C@H](CO)NC(=O)c1ccc2ncc(-c3cc4ccccc4o3)n2n1` [Example 13, 3-(1-Benzofuran-2-yl)-N-[(2R)-1-hydroxy-3-methylbutan-2-yl]imidazo[1,2-b]-pyridazine-6-carboxamide], the IC50 against human full-length MKNK1 [1] was determined as 6.8 nM; against human full-length MKNK1 [2], 12 nM.
For the compound `CN(C)CCN(C)C(=O)c1ccc2ncc(-c3cc4c(N5CCOCC5)nccc4o3)n2n1` [Example 3, N-[2-(dimethylamino)ethyl]-N-methyl-3-[4-(morpholin-4-yl)furo[3,2-c]pyridin-2-yl]imidazo[1,2-b]pyridazine-6-carboxamide], the IC50 at human full-length MKNK1 [1] was determined as 88 nM; on human full-length MKNK1 [2], 140 nM.
For `COCCNC(=O)c1ccc2ncc(-c3cc4ccccc4o3)n2n1` [Example 15, 3-(1-Benzofuran-2-yl)-N-(2-methoxyethyl)imidazo[1,2-b]pyridazine-6-carboxamide] the same measures were 8 nM and 15 nM.
Turning to `C[C@H](CO)NC(=O)c1ccc2ncc(-c3cc4ccccc4o3)n2n1` [Example 11, 3-(1-Benzofuran-2-yl)-N-[(2R)-1-hydroxypropan-2-yl]imidazo[1,2-b]pyridazine-6-carboxamide], the IC50 on human full-length MKNK1 [1] was found to be 4.1 nM; on human full-length MKNK1 [2] it was 8.8 nM.
For `O=C(NCc1ccccc1)c1ccc2ncc(-c3cc4ccccc4o3)n2n1` [Example 14, 3-(1-Benzofuran-2-yl)-N-benzylimidazo[1,2-b]pyridazine-6-carboxamide], the IC50 against human full-length MKNK1 [1] came to 5.2 nM; against human full-length MKNK1 [2], 12 nM.
Consider `CN(C)CCNC(=O)c1ccc2ncc(-c3cc4ccccc4o3)n2n1` [Example 17, 3-(1-Benzofuran-2-yl)-N-[2-(dimethylamino)ethyl]imidazo[1,2-b]pyridazine-6-carboxamide], for which the IC50 stood at 1.7 nM on human full-length MKNK1 [1] and 34 nM against human full-length MKNK1 [2].
For `CN1CCN(C(=O)c2ccc3ncc(-c4cc5c(N6CCOCC6)nccc5o4)n3n2)CC1` [Example 4, (4-Methylpiperazin-1-yl){3-[4-(morpholin-4-yl)furo[3,2-c]pyridin-2-yl]imidazo-[1,2-b]pyridazin-6-yl}methanone] the same measures were 110 nM and 280 nM.
For `CN(C)CCCNC(=O)c1ccc2ncc(-c3cc4ccccc4o3)n2n1` [Example 10, 3-(1-Benzofuran-2-yl)-N-[3-(dimethylamino)propyl]imidazo[1,2-b]pyridazine-6-carboxamide] the same measures were 3.3 nM and 7.9 nM.
For `CN(Cc1ccccc1)C(=O)c1ccc2ncc(-c3cc4ccccc4o3)n2n1` [Example 16, 3-(1-Benzofuran-2-yl)-N-benzyl-N-methylimidazo[1,2-b]pyridazine-6-carboxamide] the same measures were 8.8 nM and 23 nM.
